# Earlier results in patent US20170273925A1 (Cumberland Pharmaceuticals Inc., priority 2014, published 2017).
structure (smiles),measurement,value
"CC(C)Cc1ccc(C(C)C(=O)O)cc1 (stereo not shown) [ibuprofen, 2-(4-isobutylphenyl) propionic acid]",Solubility in water,very poorly soluble in water
